In patent US4010261A, “Method to prevent reproduction with [Des-Gly]^10 -GN-RH nonadeptide amide analogs in position” (Abbott Laboratories, priority 1974, dated 1977):

How the values were obtained:
[1] = tested on: pregnant rats; assay: Implantation in pregnant rats with various compounds under Compound N (Examples 7-10); type: in vivo, rat
Experimental: a) number of animals with implants/number of animals treated
b) mean implantation sites (based on those with implantation sites)
c) viable fetuses/total number of fetuses (successful pregnancy)
In this experiment, the activity of various compounds encompassed under Compound N are desmonstrated. Groups of 8 - 10 pregnant rats were injected subcutaneously b.i.d. with 0.5 ml. of the medium shown in Example 1 containing the compound and dose identified below. The results are expressed as explained in Example 2.

[2] = tested on: rats treated with Compound N; assay: Exogenous estradiol given to Compound N-treated pregnant rats; type: in vivo, rat; conditions: estradiol 0.1 μg. s.c. in sesame oil on days 4 and 5 of gestation, rats treated with Compound N days 2-6
Experimental: More specifically, if estradiol is subcutaneously given to rats treated with Compound N (days 2 - 6 of gestation) on days 4 and 5 of gestation at a dose of as little as 0.1 μg. each (dissolved in sesame oil), implantation already takes place in 3 of 8 animals, producing 100% viable embryos.

CCNC(=O)[C@@H]1CCCN1C(=O)[C@H](CCCNC(=N)N)NC(=O)[C@H](CC(C)C)NC(=O)[C@@H](C)NC(=O)[C@H](Cc1ccc(O)cc1)NC(=O)[C@H](CO)NC(=O)[C@H](Cc1c[nH]c2ccccc12)NC(=O)[C@H](Cc1c[nH]cn1)NC(=O)[C@@H]1CCC(=O)N1 [Example 8, L-pGlu-L-His-L-Trp-L-Ser-L-Tyr-X-L-Leu-L-Arg-L-Pro-NH-R]
a: number of animals with implants/number of animals treated ([1]; Dose 10 μg. s.c. b.i.d.): 0/10
b: mean implantation sites (based on those with implantation sites) ([1]; Dose 10 μg. s.c. b.i.d.): 0
c: viable fetuses/total number of fetuses (successful pregnancy) ([1]; Dose 10 μg. s.c. b.i.d.): 0%

CNC(=O)[C@@H]1CCCN1C(=O)[C@H](CCCNC(=N)N)NC(=O)[C@H](CC(C)C)NC(=O)[C@@H](CC(C)C)NC(=O)[C@H](Cc1ccc(O)cc1)NC(=O)[C@H](CO)NC(=O)[C@H](Cc1c[nH]c2ccccc12)NC(=O)[C@H](Cc1c[nH]cn1)NC(=O)[C@@H]1CCC(=O)N1 [Example 10, L-pGlu-L-His-L-Trp-L-Ser-L-Tyr-X-L-Leu-L-Arg-L-Pro-NH-R]
a: number of animals with implants/number of animals treated ([1]; Dose 25 μg. s.c. b.i.d.): 0/10
b: mean implantation sites (based on those with implantation sites) ([1]; Dose 25 μg. s.c. b.i.d.): 0
c: viable fetuses/total number of fetuses (successful pregnancy) ([1]; Dose 25 μg. s.c. b.i.d.): 0%

C[C@]12CC[C@@H]3c4ccc(O)cc4CC[C@H]3[C@@H]1CC[C@@H]2O [estradiol]
animals in which implantation takes place [2]: 3 of 8
viable embryos [2]: 100%
